Experiments:
[1] = system: murine breast cancer cells EMT-6; assay: In vitro cell viability of EMT-6 cells after 48 hours incubation, viable cells counted with a hemocytometer; assay type: cell-based; details: 1 μM, 50 μM and 100 μM
Method: A murine breast cancer cells EMT-6 (0.5*10^6 cells/plate) were plated and grown in Dulbecco's Modified Eagle Medium (DMEM) supplemented with 10% FBS, 2% L-Glutamine Solution (200 mM), 2% Pen-Strep Solution (Biological Industries), and […] D-Glucose under regular growth conditions: 5% CO2, and 37.6° C.
After the incubation time, cells were washed with PBS (3 times), harvested using Trypsin-EDTA solution (Biological Industries), and the number of viable cells was counted under microscope using a microscope counting chamber (Hemocytometer).

treated patients = details: dose limiting toxicity; cited from earlier work

N.N.[Cl][Pt][Cl] [Cisplatin, cis-diamminedichloroplatinum(II)]
toxicity to the cells / effect on cell number (FIG. 1) [1]: dose-dependent reduction in the cells
sensory neuropathy, share of treated patients (treated patients): more than 20%

Source: patent US20140135390A1, “Modified Platinum Compounds” (priority 2011, published 2014)
